Reference: patent publication US20250353864A1, “INDAZOLE CONTAINING MACROCYCLES AND THEIR USE” (BLOSSOMHILL THERAPEUTICS, INC., priority 2022, published 2025)

What was measured:
Type in all cases: biochemical
ALK = ALK (Homo sapiens (Human), UniProt Q9UM73); experiment: HotSpot radiometric kinase assay, inhibition of ALK kinase activity; settings: 10 μM ATP
Protocol: Briefly, specific kinase/substrate pairs along with required cofactors were prepared in reaction buffer; 20 mM Hepes pH 7.5, 10 mM […], 1 mM EGTA, 0.02% Brij35, 0.02 mg/ml BSA, 0.1 mM Na3VO4, 2 mM DTT, 1% DMSO. Compounds were delivered into the reaction, followed […] later by addition of a mixture of ATP (Sigma, St. Louis MO) and ^33P ATP (Perkin Elmer, Waltham MA) to a final concentration of 10 μM. Reactions were carried out at room temperature for 120 min, followed by spotting of the reactions onto P81 ion exchange filter paper (Whatman Inc., Piscataway, NJ). Unbound phosphate was removed by extensive washing of filters in 0.75% phosphoric acid. […] IC50 values and curve fits were obtained using Prism (GraphPad Software).

CLK1 = CLK1 (Homo sapiens (Human), UniProt P49759); experiment: Inhibition of CLK1 kinase activity evaluated at Nanosyn (ADP-Glo); settings: ADP-Glo luminescence
Procedure, shortened: (§1)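 Percent inhibition derived from luminescent ADP detection (ADP-Glo), normalised to DMSO-only and enzyme-free wells. Reactions ran in HEPES pH 7.5 buffer with Mg2+, Triton X-100 and BSA, 1% DMSO, ATP-initiated, for an assay-specific time.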

CLK2 = CLK2 (Homo sapiens (Human), UniProt P49760); experiment: Inhibition of CLK2 kinase activity evaluated at Nanosyn (ADP-Glo); settings: ADP-Glo luminescence
Procedure, shortened: as §1

CLK3 = CLK3 (Homo sapiens (Human), UniProt P49761); experiment: Inhibition of CLK3 kinase activity evaluated at Nanosyn (ADP-Glo); settings: ADP-Glo luminescence
Procedure, shortened: as §1

CLK4 = CLK4 (Homo sapiens (Human), UniProt Q9HAZ1); experiment: Inhibition of CLK4 kinase activity evaluated at Nanosyn (ADP-Glo); settings: ADP-Glo luminescence
Procedure, shortened: as §1

EGFR WT = EGFR WT (Homo sapiens (Human), UniProt P00533); experiment: HotSpot radiometric kinase assay (Reaction Biology), EGFR WT; settings: 10 μM ATP
Procedure, shortened: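 10 μM ATP (33P-labelled, final); 120 min RT; P81 filter capture, 0.75% phosphoric acid washes. Cpd preincubated ~20 min with enzyme/substrate, 20 mM Hepes pH 7.5, 10 mM MgCl2, 1% DMSO. IC50 by curve fit.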

EGFR (D770_N771insNPG) = EGFR (D770_N771insNPG) (Homo sapiens (Human), UniProt P00533, INS770NPG); experiment: HotSpot radiometric kinase assay, EGFR (D770_N771insNPG); settings: 10 μM ATP, read-out: EGFR (Δ770_N771insNPG) IC50
Procedure, shortened: (§2)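 Kinase, substrate and cofactors are mixed in 20 mM Hepes pH 7.5 with 10 mM MgCl2, 1 mM EGTA, 2 mM DTT and 1% DMSO. Compound is added, and about 20 min later ATP/33P-ATP (10 μM final) starts a 120-min room-temperature reaction, which is then spotted onto P81 paper.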

EGFR Δ746-750 mutant = EGFR Δ746-750 mutant (Homo sapiens (Human), UniProt P00533, DEL746-750); experiment: HotSpot radiometric kinase assay, EGFR Δ746-750 mutant; settings: 10 μM ATP
Procedure, shortened: as §2

EGFR L858R mutant = EGFR L858R mutant (Homo sapiens (Human), UniProt P00533, L858R); experiment: HotSpot radiometric kinase assay, EGFR L858R mutant; settings: 10 μM ATP
Procedure, shortened: as §2

[1] = target: EGFR L858R/T790M/C797S mutant (Homo sapiens (Human), UniProt P00533, C797S/L858R/T790M); experiment: HotSpot radiometric kinase assay, EGFR L858R/T790M/C797S mutant; settings: 10 μM ATP
Procedure, shortened: as §2

[2] = target: EGFR Δ746-750/C797S mutant (Homo sapiens (Human), UniProt P00533, C797S/DEL746-750); experiment: HotSpot radiometric kinase assay, EGFR Δ746-750/C797S mutant; settings: 10 μM ATP
Procedure, shortened: as §2

EGFR L858R/T790M mutant = EGFR L858R/T790M mutant (Homo sapiens (Human), UniProt P00533, L858R/T790M); experiment: HotSpot radiometric kinase assay, EGFR L858R/T790M mutant; settings: 10 μM ATP
Procedure, shortened: as §2

Chain of EGFR L858R mutant (P00533 25-1210 L858R): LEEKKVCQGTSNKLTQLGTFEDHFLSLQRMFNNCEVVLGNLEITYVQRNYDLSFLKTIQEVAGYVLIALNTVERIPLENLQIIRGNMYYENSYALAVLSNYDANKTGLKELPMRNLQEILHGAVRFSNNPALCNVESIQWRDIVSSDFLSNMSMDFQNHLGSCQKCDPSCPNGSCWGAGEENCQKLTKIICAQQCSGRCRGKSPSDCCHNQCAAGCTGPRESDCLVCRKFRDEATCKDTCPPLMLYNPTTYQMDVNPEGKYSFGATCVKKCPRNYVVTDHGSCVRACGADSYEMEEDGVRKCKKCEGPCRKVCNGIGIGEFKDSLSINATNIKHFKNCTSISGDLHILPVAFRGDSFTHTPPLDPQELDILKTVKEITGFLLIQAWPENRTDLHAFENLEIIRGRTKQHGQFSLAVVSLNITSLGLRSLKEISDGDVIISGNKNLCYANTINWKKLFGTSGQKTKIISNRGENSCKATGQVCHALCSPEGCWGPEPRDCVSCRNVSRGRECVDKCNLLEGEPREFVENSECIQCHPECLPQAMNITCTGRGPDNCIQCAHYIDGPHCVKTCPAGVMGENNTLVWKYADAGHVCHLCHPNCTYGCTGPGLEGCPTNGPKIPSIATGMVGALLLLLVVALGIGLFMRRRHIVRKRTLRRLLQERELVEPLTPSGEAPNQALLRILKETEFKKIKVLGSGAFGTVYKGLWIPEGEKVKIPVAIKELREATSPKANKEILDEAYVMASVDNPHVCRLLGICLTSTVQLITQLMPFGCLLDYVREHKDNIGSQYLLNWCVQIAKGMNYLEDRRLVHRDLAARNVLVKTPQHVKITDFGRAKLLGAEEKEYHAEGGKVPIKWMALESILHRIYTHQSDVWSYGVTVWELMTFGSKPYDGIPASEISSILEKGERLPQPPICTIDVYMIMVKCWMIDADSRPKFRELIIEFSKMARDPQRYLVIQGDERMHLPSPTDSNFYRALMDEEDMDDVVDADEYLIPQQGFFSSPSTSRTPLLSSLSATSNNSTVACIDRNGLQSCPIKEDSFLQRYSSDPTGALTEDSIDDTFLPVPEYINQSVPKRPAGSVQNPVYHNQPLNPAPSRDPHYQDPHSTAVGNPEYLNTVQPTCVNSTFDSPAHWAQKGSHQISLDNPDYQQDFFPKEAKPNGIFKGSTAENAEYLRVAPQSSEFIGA
Chain of EGFR L858R/T790M mutant (P00533 25-1210 T790M/L858R): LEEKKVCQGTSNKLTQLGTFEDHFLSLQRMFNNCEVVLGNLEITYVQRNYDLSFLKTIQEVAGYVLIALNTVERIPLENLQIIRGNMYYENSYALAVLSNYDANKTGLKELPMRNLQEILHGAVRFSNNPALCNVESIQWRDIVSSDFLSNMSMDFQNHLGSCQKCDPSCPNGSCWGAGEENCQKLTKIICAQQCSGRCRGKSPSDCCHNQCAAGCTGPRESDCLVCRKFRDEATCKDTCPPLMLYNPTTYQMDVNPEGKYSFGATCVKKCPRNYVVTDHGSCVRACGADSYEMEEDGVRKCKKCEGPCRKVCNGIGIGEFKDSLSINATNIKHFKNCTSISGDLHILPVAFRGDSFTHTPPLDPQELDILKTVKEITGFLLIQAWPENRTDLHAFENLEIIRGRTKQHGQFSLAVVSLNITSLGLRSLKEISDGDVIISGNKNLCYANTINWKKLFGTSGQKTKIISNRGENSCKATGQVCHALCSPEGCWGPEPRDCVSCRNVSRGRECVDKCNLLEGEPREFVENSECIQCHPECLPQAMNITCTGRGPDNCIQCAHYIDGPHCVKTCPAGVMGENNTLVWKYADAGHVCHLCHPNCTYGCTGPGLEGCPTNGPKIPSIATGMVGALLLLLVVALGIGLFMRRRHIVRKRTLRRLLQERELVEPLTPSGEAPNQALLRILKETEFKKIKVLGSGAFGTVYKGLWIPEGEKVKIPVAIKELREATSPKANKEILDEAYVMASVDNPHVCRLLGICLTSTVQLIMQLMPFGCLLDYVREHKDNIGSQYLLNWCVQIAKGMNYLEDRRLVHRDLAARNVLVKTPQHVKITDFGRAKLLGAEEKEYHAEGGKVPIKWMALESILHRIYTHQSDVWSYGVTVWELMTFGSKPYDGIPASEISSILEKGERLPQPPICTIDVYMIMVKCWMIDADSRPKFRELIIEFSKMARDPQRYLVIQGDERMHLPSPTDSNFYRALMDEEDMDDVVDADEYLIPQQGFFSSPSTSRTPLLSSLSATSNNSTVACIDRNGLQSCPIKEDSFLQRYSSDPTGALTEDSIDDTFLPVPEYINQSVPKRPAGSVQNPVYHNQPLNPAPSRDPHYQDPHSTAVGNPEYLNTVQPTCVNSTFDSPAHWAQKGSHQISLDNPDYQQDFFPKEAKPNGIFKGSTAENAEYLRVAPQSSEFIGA
Chain of EGFR Δ746-750 mutant (P00533 other isoform, or with tags, fused parts or gaps del 1-668/del 746-750 limits assumed): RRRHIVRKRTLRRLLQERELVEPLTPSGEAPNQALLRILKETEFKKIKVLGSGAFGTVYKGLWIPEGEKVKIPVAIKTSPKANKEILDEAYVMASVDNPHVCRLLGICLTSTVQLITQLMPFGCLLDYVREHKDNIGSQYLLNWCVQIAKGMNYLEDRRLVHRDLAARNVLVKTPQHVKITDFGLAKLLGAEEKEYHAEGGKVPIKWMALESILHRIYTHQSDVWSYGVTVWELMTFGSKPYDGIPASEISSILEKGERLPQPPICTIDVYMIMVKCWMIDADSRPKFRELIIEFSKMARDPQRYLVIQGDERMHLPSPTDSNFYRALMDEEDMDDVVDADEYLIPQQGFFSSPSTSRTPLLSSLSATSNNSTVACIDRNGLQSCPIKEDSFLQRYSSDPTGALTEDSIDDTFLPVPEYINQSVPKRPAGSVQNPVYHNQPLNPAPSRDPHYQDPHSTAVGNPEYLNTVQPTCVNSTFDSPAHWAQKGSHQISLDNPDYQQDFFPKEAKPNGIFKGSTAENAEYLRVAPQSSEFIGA
Chain of CLK2 (P49760 whole entry): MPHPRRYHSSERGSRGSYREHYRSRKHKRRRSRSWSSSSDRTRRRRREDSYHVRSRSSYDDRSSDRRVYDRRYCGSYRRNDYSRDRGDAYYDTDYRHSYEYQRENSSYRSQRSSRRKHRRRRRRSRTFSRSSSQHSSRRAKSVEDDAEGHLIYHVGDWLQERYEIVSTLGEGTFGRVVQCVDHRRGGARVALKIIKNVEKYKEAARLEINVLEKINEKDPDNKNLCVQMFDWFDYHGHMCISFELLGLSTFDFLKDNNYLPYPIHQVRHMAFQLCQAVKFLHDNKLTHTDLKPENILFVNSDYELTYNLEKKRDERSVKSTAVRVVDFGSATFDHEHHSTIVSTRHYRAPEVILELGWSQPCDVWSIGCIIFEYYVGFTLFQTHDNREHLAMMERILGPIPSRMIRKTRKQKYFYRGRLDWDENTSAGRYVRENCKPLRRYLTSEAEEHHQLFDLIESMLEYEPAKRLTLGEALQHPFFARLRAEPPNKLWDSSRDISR
Chain of CLK4 (Q9HAZ1 whole entry): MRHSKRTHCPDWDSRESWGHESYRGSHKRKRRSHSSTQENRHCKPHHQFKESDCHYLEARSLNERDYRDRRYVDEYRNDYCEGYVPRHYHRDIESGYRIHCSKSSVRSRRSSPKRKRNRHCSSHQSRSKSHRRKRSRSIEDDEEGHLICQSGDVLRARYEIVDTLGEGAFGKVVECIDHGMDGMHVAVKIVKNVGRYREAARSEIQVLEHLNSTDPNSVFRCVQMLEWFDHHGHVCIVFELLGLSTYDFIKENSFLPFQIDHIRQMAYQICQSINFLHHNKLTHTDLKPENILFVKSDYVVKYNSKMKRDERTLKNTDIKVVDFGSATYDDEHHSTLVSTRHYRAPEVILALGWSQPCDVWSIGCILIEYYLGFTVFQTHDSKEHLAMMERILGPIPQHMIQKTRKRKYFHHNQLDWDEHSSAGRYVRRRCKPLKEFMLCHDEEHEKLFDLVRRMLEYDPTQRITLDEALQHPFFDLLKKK
Chain of EGFR (D770_N771insNPG) (P00533 other isoform, or with tags, fused parts or gaps del 1-668/ins NPG behind 770 limits assumed): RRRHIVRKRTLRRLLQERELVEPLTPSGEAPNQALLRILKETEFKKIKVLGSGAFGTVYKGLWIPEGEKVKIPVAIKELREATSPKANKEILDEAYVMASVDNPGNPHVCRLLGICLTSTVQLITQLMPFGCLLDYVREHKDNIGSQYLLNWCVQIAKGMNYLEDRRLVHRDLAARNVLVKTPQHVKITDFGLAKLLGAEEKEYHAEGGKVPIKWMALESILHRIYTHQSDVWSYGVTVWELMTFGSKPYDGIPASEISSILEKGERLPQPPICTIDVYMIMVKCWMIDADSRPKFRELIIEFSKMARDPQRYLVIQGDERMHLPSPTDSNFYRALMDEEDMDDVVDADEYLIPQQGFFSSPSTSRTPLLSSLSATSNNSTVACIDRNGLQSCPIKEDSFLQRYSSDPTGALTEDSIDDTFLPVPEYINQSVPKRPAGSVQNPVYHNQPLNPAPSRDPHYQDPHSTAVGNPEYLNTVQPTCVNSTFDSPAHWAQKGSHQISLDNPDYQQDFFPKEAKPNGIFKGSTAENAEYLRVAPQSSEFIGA
Chain of CLK3 (P49761 whole entry): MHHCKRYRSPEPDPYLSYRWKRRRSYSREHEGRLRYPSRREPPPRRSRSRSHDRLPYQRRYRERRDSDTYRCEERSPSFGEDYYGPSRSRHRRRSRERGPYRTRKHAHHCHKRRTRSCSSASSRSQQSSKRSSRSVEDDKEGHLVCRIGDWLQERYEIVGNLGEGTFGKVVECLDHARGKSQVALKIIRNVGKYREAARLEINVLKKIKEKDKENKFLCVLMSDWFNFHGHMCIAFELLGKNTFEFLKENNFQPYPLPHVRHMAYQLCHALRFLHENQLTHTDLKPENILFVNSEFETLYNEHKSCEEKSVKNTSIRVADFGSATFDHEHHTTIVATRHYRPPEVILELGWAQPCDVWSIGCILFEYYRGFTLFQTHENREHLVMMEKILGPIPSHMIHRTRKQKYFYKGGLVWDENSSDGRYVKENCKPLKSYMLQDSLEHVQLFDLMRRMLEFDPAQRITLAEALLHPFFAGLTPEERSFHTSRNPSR

| IC50 (ALK) [nM] | IC50 (CLK1) [nM] | IC50 (CLK2) [nM] | IC50 (CLK3) [nM] | IC50 (CLK4) [nM] | IC50 (EGFR WT) [nM] | IC50 (EGFR (D770_N771insNPG)) [nM] | IC50 (EGFR Δ746-750 mutant) [nM] | IC50 (EGFR L858R mutant) [nM] | IC50 [1] [nM] | IC50 [2] [nM] | IC50 (EGFR L858R/T790M mutant) [nM] | SMILES |
| --- | --- | --- | --- | --- | --- | --- | --- | --- | --- | --- | --- | --- |
| 1.46 | 0.8 | 1.03 | 241 | 2.25 | – | – | – | – | – | – | – | CC(C)Oc1nn(CCO)c2c1/C=C/c1n[nH]c3ccc(cc13)-c1cnn(C)c1O[C@@H](C(F)F)CN(C)C2 (single isomer, unassigned) [Ex. 275] |
| 2 | 1.38 | 1.35 | 94.5 | 4.05 | – | – | – | – | – | – | – | CC(C)Oc1nn(CCO)c2c1/C=C/c1n[nH]c3cc(F)c(cc13)-c1cnn(C)c1O[C@@H](C)[C@H]1CCCN1C2 (single isomer, unassigned) [Example 256] |
| 2.09 | – | – | – | – | 884 | 377 | 44.8 | 104 | 24.3 | – | – | Cc1nn(C)c2c1/C=C/c1n[nH]c3ccc(cc13)-c1cnn(C)c1OCCCO2 [Ex. 8, (17E)-8,14,16-trimethyl-2,11,12,14-tetrahydro-8H,10H-3,5-etheno[1,5]dioxacyclopentadecino[10,11-c:15,14-c′:6,7-c″]tripyrazole] |
| 1.35 | – | – | – | – | 158 | 94.8 | 3.84 | 4.49 | 0.54 | 5.1 | 1.87 | Cc1nn(CCO)c2c1/C=C/c1n[nH]c3ccc(cc13)-c1cnn(C)c1OCCCO2 [Ex. 22, 2-[(17E)-8,16-dimethyl-2,8,11,12-tetrahydro-10H,14H-3,5-etheno[1,5]dioxacyclopentadecino[10,11-c:15,14-c′:6,7-c″]tripyrazol-14-yl]ethan-1-ol] |
| 6.93 | – | – | – | – | 584 | 1040 | 101 | 135 | 30.9 | 99.6 | – | Cc1nn(C)c2c1/C=C/c1n[nH]c3ccc(cc13)-c1cnn(C)c1O[C@@H](C)CCO2 [Ex. 35, (10S,17E)-8,10,14,16-tetramethyl-2,11,12,14-tetrahydro-8H,10H-3,5-etheno[1,5]dioxacyclopentadecino[10,11-c:15,14-c′:6,7-c″ ]tripyrazole] |
| 9.87 | 4.28 | 2.99 | 51.1 | 2.77 | – | – | – | – | – | – | – | CCOc1nn(CCO)c2c1/C=C/c1n[nH]c3cc(F)c(cc13)-c1cnn(C)c1O[C@H](C)CN(CC)C2 [Ex. 277, 2-[(10R,17E)-16-ethoxy-12-ethyl-19-fluoro-8,10-dimethyl-2,8,10,11,12,13-hexahydro-14H-3,5-ethenotripyrazolo[3,4-f:3′,4′-j:4″,3″-n][1,4]oxazacyclopentadecin-14-yl]ethan-1-ol] |
| 1.08 | 0.52 | 0.24 | 242 | 1.96 | – | – | – | – | – | – | – | CCN1Cc2c(c(OC(C)C)nn2C[C@H](C)O)/C=C/c2n[nH]c3ccc(cc23)-c2cnn(C)c2O[C@@H](C)C1 [Ex. 280, (2S)-1-{(10S,17E)-12-ethyl-8,10-dimethyl-16-[(propan-2-yl)oxy]-2,8,10,11,12,13-hexahydro-14H-3,5-ethenotripyrazolo[3,4-f:3′,4′-j:4″,3″-n][1,4]oxazacyclopentadecin-14-yl}propan-2-ol] |
| – | 0.2 | 0.33 | 209 | 0.44 | 93.7 | 230 | 23.5 | 21.6 | 5.1 | 5.93 | 1.92 | COCc1nn(CCO)c2c1/C=C/c1n[nH]c3ccc(cc13)-c1cnn(C)c1O[C@@H](C)CN(C)C2 [Example 261, 2-[(10S,17E)-16-(methoxymethyl)-8,10,12-trimethyl-2,8,10,11,12,13-hexahydro-14H-3,5-ethenotripyrazolo[3,4-f:3′,4′-j:4″,3″-n][1,4]oxazacyclopentadecin-14-yl]ethan-1-ol] |
| – | 0.82 | 0.49 | 104 | 1.5 | 94.5 | 98.3 | 8.48 | 40.1 | 1.67 | 7.12 | 4.98 | CCN1Cc2c(c(OC(C)C)nn2CC(C)(C)O)/C=C/c2n[nH]c3ccc(cc23)-c2cnn(C)c2O[C@@H](C)C1 [Example 262, 1-{(10S,17E)-12-ethyl-8,10-dimethyl-16-[(propan-2-yl)oxy]-2,8,10,11,12,13-hexahydro-14H-3,5-ethenotripyrazolo[3,4-f:3′,4′-j:4″,3″-n][1,4]oxazacyclopentadecin-14-yl}-2-methylpropan-2-ol] |
| – | 0.64 | 0.71 | 32.7 | 1.31 | 6.94 | 18.2 | 1.28 | 3.97 | 0.5 | 1.79 | 0.75 | CCN1Cc2c(c(OC(C)C)nn2CC(C)=O)/C=C/c2n[nH]c3ccc(cc23)-c2cnn(C)c2O[C@@H](C)C1 [Example 263, 1-{(10S,17E)-12-ethyl-8,10-dimethyl-16-[(propan-2-yl)oxy]-2,8,10,11.12,13-hexahydro-14H-3,5-ethenotripyrazolo[3,4-f:3′,4′-j:4″,3″-n][1,4]oxazacyclopentadecin-14-yl}propan-2-one] |
| – | 1.06 | 3.08 | 519 | 1.59 | 815 | 826 | 162 | 491 | 8.63 | 70 | 18 | CC(C)Oc1nn(CCO)c2c1/C=C/c1n[nH]c3ccc(cc13)-c1cnn(C)c1O[C@@H](C#N)CN(C)C2 [Example 264, (10R,17E)-14-(2-hydroxyethyl)-8,12-dimethyl-16-[(propan-2-yl)oxy]-2,10,11,12,13,14-hexahydro-8H-3,5-ethenotripyrazolo[3,4-f:3′,4′-j:4″,3″-n][1,4]oxazacyclopentadecine-10-carbonitrile] |
| 15.4 | – | – | – | – | – | – | – | – | – | – | – | CCN1Cc2c(c(OC)nn2[C@@H](C)CO)/C=C/c2n[nH]c3cc(F)c(cc23)-c2cnn(C)c2O[C@H](C)C1 [Example 289, (2S)-2-[(10R,17E)-12-ethyl-19-fluoro-16-methoxy-8,10-dimethyl-2,8,10,11,12,13-hexahydro-14H-3,5-ethenotripyrazolo[3,4-f:3′,4′-j:4″,3″-n][1,4]oxazacyclopentadecin-14-yl]propan-1-ol] |
| 29 | – | – | – | – | – | – | – | – | – | – | – | CCNC(=O)Cn1nc(C)c2c1COCCOc1c(cnn1C)-c1ccc3[nH]nc(c3c1)/C=C/2 [Example 301, 2-[(17E)-8,16-dimethyl-2,10,11,13-tetrahydro-3,5-etheno[1,4]dioxacyclopentadecino[10,11-c:15,14-c′:6,7-c′]tripyrazol-14(8H)-yl]-N-ethylacetamide] |
| 27.5 | – | – | – | – | – | – | – | – | – | – | – | Cc1nn(C)c2c1/C=C/c1n[nH]c3ccc(cc13)-c1cnn(C)c1OCCOC2 [Example 303, (17E)-8,14,16-trimethyl-2,8,10,11,13,14-hexahydro-3,5-etheno[1,4]dioxacyclopentadecino[10,11-c:15,14-c′:6,7-c″]tripyrazole] |
| 5.05 | – | – | – | – | 766 | 1490 | 218 | 182 | 60.5 | 425 | 24.7 | CCc1nn(C)c2c1/C=C/c1n[nH]c3ccc(cc13)-c1cnn(C)c1O[C@@H](C)COC2 [Example 319, (10S,17E)-16-ethyl-8,10,14-trimethyl-2,8,10,11,13,14-hexahydro-3,5-etheno[1,4]dioxacyclopentadecino[10,11-c:15,14-c′:6,7-c″]tripyrazole] |
